Assay results published in PubChem BioAssay (NCI).
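Five compound concentrations were applied to cells in 96-well plates for 48 hours; endpoints were derived by simple linear interpolation of the resulting dose-response curve. The concentration for full growth arrest is given as TGI.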

Assays:
Assay in all cases: NCI-60 cell line screen, 48 h
HCT-116 colon = test system: HCT-116 colon
MDA-MB-231 breast = test system: MDA-MB-231 breast
NCI-H460 lung = test system: NCI-H460 lung
MDA-MB-435 = test system: MDA-MB-435
NCI/ADR-RES ovarian = test system: NCI/ADR-RES ovarian
HOP-62 NSCLC = test system: HOP-62 NSCLC
RPMI-8226 leukemia = test system: RPMI-8226 leukemia
SF-539 CNS = test system: SF-539 CNS
A498 renal = test system: A498 renal
HCT-15 colon = test system: HCT-15 colon
MDA-N = test system: MDA-N
CAKI-1 renal = test system: CAKI-1 renal
IGROV1 ovarian = test system: IGROV1 ovarian
SK-MEL-5 melanoma = test system: SK-MEL-5 melanoma
COLO 205 colon = test system: COLO 205 colon
EKVX NSCLC = test system: EKVX NSCLC
SF-268 CNS = test system: SF-268 CNS
SK-MEL-2 melanoma = test system: SK-MEL-2 melanoma
PC-3 prostate = test system: PC-3 prostate
SN12C renal = test system: SN12C renal

Structure (SMILES) | TGI (HCT-116 colon) [µM] | TGI (MDA-MB-231 breast) [µM] | TGI (NCI-H460 lung) [µM] | TGI (MDA-MB-435) [µM] | TGI (NCI/ADR-RES ovarian) [µM] | TGI (HOP-62 NSCLC) [µM] | TGI (RPMI-8226 leukemia) [µM] | TGI (SF-539 CNS) [µM] | TGI (A498 renal) [µM] | TGI (HCT-15 colon) [µM] | TGI (MDA-N) [µM] | TGI (CAKI-1 renal) [µM] | TGI (IGROV1 ovarian) [µM] | TGI (SK-MEL-5 melanoma) [µM] | TGI (COLO 205 colon) [µM] | TGI (EKVX NSCLC) [µM] | TGI (SF-268 CNS) [µM] | TGI (SK-MEL-2 melanoma) [µM] | TGI (PC-3 prostate) [µM] | TGI (SN12C renal) [µM]
Clc1ccc(-c2cc(-c3nc4ccccc4[nH]3)no2)cc1 | 30.6 | 35.5 | 32.6 | 31.6 | 73.5 | 38.2 | 73.1 | 74.3 | 47.5 | 45 | 33.8 | 34.7 | 62.1 | 34.7 | 41.8 | 34 | 45.9 | 34.7 | 48.4 | 35
C/C(=C\[C@H]1C[C@@H]([C@@H]2CC[C@]34C[C@]23C=C[C@@H]2[C@@]3(C)CC=C5C[C@@H](c6ccccc6)OC[C@]5(C)[C@@H]3C[C@@H](O)[C@]24C)C(=O)O1)CO | > 100 | 54.4 | – | > 100 | > 100 | > 100 | > 96.4 | 35.1 | 5.8 | 25.3 | 13.2 | 28.3 | 20.5 | 2.76 | 5.11 | > 52 | > 70.1 | > 100 | > 55.6 | 5.57
c1ccc(-c2cc(-c3cc(-c4ccccc4)no3)on2)cc1 | > 100 | 74.8 | > 100 | > 100 | > 100 | > 100 | > 100 | 33.4 | > 100 | > 100 | > 100 | > 100 | > 100 | > 100 | > 100 | > 100 | > 100 | > 100 | > 100 | > 100
CCOC(=O)C1C(=O)CC(C)(O)C(C(=O)OCC)C1c1ccc(OC)cc1 (centres undefined) | > 100 | > 100 | > 100 | > 100 | > 100 | > 100 | > 100 | > 100 | > 100 | > 100 | > 100 | > 100 | > 100 | > 100 | > 100 | > 100 | > 100 | > 100 | > 100 | > 100
Clc1cccc(Cl)c1C1SCc2nc3ncccc3n21 (centres undefined) | > 100 | > 100 | > 100 | > 100 | > 100 | > 100 | > 100 | > 100 | > 100 | > 100 | > 100 | > 100 | > 100 | > 100 | > 100 | > 100 | > 100 | > 100 | > 100 | > 100
CC1=C/C(=C(/c2ccc(O)c(C)c2)c2ccccc2C(=O)O)C=CC1=O | 32.8 | 40.4 | > 100 | 33.3 | 80.5 | 38 | 46 | 35.2 | 32.8 | 42.7 | 33.2 | 32 | 34.1 | 34.9 | 34.3 | 36 | 57.1 | 38.5 | 35.9 | 36.7
CCOC(=O)C(SCCO)C(C(=O)OCC)n1cc(C)c(=O)[nH]c1=O (centres undefined) | 22.6 | 48.9 | > 100 | > 56.1 | > 86.6 | > 85.6 | 44.4 | > 65.3 | 47.5 | 25.7 | 64.4 | 18.2 | > 65.4 | > 70.6 | 23.3 | > 100 | > 100 | 51.1 | 34.6 | > 45.8
Cc1c(C)c2ccc(O)cc2[nH]c1=O | > 100 | > 100 | > 100 | > 100 | > 100 | > 100 | > 100 | > 100 | > 100 | > 100 | > 100 | > 100 | > 100 | > 100 | > 100 | > 100 | – | > 100 | > 100 | > 100
Nc1nc(Cl)cc(NCC2(CO)CCC(OCc3ccccc3)C2)n1 (centres undefined) | > 100 | 42.8 | > 100 | 39.9 | 25 | > 100 | > 100 | > 100 | 44.4 | > 100 | 74.6 | 45.1 | > 100 | 18.8 | 62.7 | 59.4 | > 100 | 77.3 | 33 | 93
O=C(CN1C(=O)c2ccccc2C1=O)OCC1CCCN2CCCCC12 (centres undefined) | > 100 | > 100 | > 100 | > 100 | > 100 | – | > 100 | > 100 | > 100 | > 100 | > 100 | > 100 | – | > 100 | > 100 | > 100 | > 100 | > 100 | > 100 | > 100
CC(C)=CCC/C(C)=C/CC/C(C)=C/CC/C(C=O)=C/CC/C(C)=C\CC/C(C)=C/CC/C(C)=C/CC/C(C)=C/CC1=CC(=O)C=CC1=O | > 100 | > 100 | > 100 | > 100 | > 100 | > 100 | > 100 | – | > 100 | > 100 | > 100 | 74.3 | > 100 | > 100 | > 100 | > 100 | > 100 | > 100 | > 100 | > 100
O=C1C(c2c(O)[nH]c3ccc(S(=O)(=O)N(CCO)CCO)cc23)=Nc2ccccc21 | > 100 | > 100 | > 100 | > 100 | > 100 | > 100 | > 100 | – | > 100 | > 100 | > 100 | > 100 | > 100 | > 100 | > 100 | > 100 | > 100 | > 100 | > 100 | > 100
